Results as given in Sander's compilation of Henry's law constants (doi:10.1584/jpestics.18.3_201).

Assay: Henry solubility constant Hcp at 298.15 K (mol/(m3 Pa))
Settings: reference: Watanabe (1993)

Row | Compound | Henry solubility constant Hcp
1 | CCN(CC)C(=O)SCc1ccc(Cl)cc1 [S-(4-chlorobenzyl) diethylthiocarbamate] | 19
2 | CCCCOCN(C(=O)CCl)c1c(CC)cccc1CC [butachlor] | 160
3 | CC(C)OC(=O)Nc1cccc(Cl)c1 [chlorpropham] | 23
4 | CCOP(=S)(OCC)Oc1cc(C)nc(C(C)C)n1 [diazinon] | 11
5 | COP(=S)(OC)Oc1ccc([N+](=O)[O-])c(C)c1 [fenitrothion] | 83
6 | CCC(C)c1ccccc1OC(=O)NC (stereo not given) [fenobucarb] | 150
7 | CC(C)OP(=O)(OC(C)C)SCc1ccccc1 [iprobenphos] | 260
8 | CCOC(=O)CC(SP(=S)(OC)OC)C(=O)OCC (stereo not given) [malathion] | 670
9 | CCCN(CCC)c1c([N+](=O)[O-])cc(C(F)(F)F)cc1[N+](=O)[O-] [trifluralin] | 0.91
10 | CNC(=O)Oc1ccc(C)c(C)c1 [xylylcarb] | 91
